Assay results reported in ChEMBL document CHEMBL1134052, “A new C-nucleoside analogue of tiazofurin: synthesis and biological evaluation of 2-beta-D-ribofuranosylimidazole-4-carboxamide (imidazofurin)” (Bioorg Med Chem Lett, 2001).

Key:
K562 [1] = experiment: Ability to inhibit the growth of human myelogenous leukemia K562 cells; format: functional, cell-based
K562 [2] = experiment: Ability to inhibit the growth of human myelogenous leukemia K562 cells at 100 uM; no growth; format: functional, cell-based

SMILES	IC50 (K562 [1]) [µM]	Activity (K562 [2])
NC(=O)c1csc([C@@H]2O[C@H](CO)[C@@H](O)[C@H]2O)c1	4.6	
NC(=O)c1c[nH]c([C@@H]2O[C@H](CO)[C@@H](O)[C@H]2O)n1		no growth
